This is an account of results in US8063018B2, “Bivalent thrombin binding molecules comprising linkers” (National Research Council of Canada, priority 2004, dated 2011).

The target in experiment [1] is T1, thrombin (Homo sapiens, UniProt P00734). Kind of experiment: Kinetic amidolytic assay with chromogenic substrate S-2238 (inhibition constants). Format: biochemical. As for the experimental part: Peptides were freeze-dried and their identity was confirmed by ion-spray mass spectrometry. Clotting assays were carried out by use of the protocols described previously (DiMaio and others, 1990, 21698-21703; Witting and others, 1992, 737-743). The assay employs bovine plasma fibrinogen dissolved at 0.1% in 50 mM Tris-Cl, 100 mM NaCl, 0.1% PEG-8000 at pH 7.6 (i.e. the clotting buffer). Each assay mixture contained a certain concentration of the peptide, and the reaction was started by the addition of human thrombin to a final concentration of 0.6-1.2 nM. Optical absorbance increase at 420 nm caused by fibrin clot formation was measured at 25° C. or 37° C. using the Spectramax plate reader. The onset clotting time was determined as an intersection of the baseline and the extrapolated linear portion of the OD change curve. The concentration of a peptide needed to double the clotting time was defined as IC50 (DiMaio and others, 1990, 21698-21703). Kinetic amidolytic curves were obtained in clotting buffer at 25° C. using eight inhibitor concentrations and three to five concentrations of the chromogenic substrate S-2238 (Chromogenix) (DiMaio and others, 1990, 21698-21703). Inhibition constants were extracted from Lineweaver-Burk equation by using weighted linear regression. Errors in Ki determination were estimated by using Monte-Carlo sampling with 1-3% variance of the experimental points. Peptide concentrations were determined spectrophotometrically using predicted extinction coefficients at 278 nm (Gill and von Hippel, 1989, 319-326).

Experiment [2] has as its target T1, thrombin. Kind of experiment: Fibrinogen clotting assay catalyzed by thrombin. Format: biochemical. To be noted: for Clotting onset time: 150 nM peptide, 0.6 nM thrombin; for IC50: concentration needed to double the clotting time.
Experiment [3] concerns the target α-thrombin (Homo sapiens, UniProt P00734). Kind of experiment: Effect of calcium on inhibition of the amidolytic activity of thrombin (S-3266). Further details: chromogenic substrate proteolysis by human α-thrombin. To be noted: 50 and 100 mM calcium, 0.6 nM thrombin, 25° C. The class given is biochemical.
Experiment [4] is described as follows: Calcium binding followed by proton NMR. Particulars: CaCl2 titration, pH 5.5. On the procedure: Looking at the results in FIG. 6, panels a, b, c, d show changes in the proton NMR spectra of Ac-[…]NH2 (SEQ. ID. NO. 109) (P3230, panels a, b) and Ac-[…]NH2 (SEQ. ID. NO. 110) (P3231, panels c, d) upon the addition to the initial ˜450 μL of the corresponding peptide in 20 mM sodium acetate-d3 buffer, pH 5.5, containing 10% D2O, of 1 μL (final CaCl2 concentration ˜0.22 mM), additional 2 μL (final CaCl2 concentration ˜0.66 mM), additional 10 μL (final CaCl2 concentration ˜2.8 mM) of 100 mM CaCl2, and additional 10 μL (final CaCl2 concentration ˜23.9 mM) of 1 M CaCl2. Panels e and f show changes in the proton NMR spectrum of a disulfide-linked peptide Bbs-Arg-(D-Pip)-Gly-Cys . . . […](SEQ. ID. No. 16) upon the addition to the initial volume of ˜450 μL of 1 μL (final CaCl2 concentration ˜0.22 mM), additional 2 μL (final CaCl2 concentration ˜0.66 mM) of 100 mM CaCl2, and additional 10 μL (final CaCl2 concentration ˜22.2 mM) of 1 M CaCl2.
An inhibitor with a linker known to bind specific metal ions will be affected by the presence of these ions in solution. Two peptides homologous to the calcium-binding loop of troponin C were designed and established that they bind calcium ions in solution. The peptides have the following sequences—Ac-[…]NH2 (P3230) (SEQ. ID. NO. 109) and Ac-[…]NH2 (P3231) (SEQ. ID. NO. 110). The peptides were synthesized, purified and their identity was confirmed as described in Example 1. They were tested for calcium binding by use of NMR. For this both freeze-dried peptides were reconstituted at a concentration of approximately 0.5 mM in 20 mM sodium acetate-d3 buffer, pH 5.5, containing 10% D2O. Proton spectra of the peptides were recorded at 800 MHz, 15° C., before and after addition of increasing amounts of 0.1 and 1 M stock solutions of CaCl2 in the same buffer. FIGS. 6a,b,c,d show changes in the proton NMR spectra of these two peptides upon the addition to the initial volume of ˜450 μL of 1 μL (final CaCl2 concentration ˜0.22 mM), additional 2 μL (final CaCl2 concentration ˜0.66 mM), additional 10 μL (final CaCl2 concentration ˜2.8 mM) of 100 mM CaCl2, and additional 10 μL (final CaCl2 concentration ˜23.9 mM) of 1 M CaCl2. The changes in the spectra confirm binding of calcium with affinity in mM range.
One of the two designed peptides was used to construct a calcium-responsive bivalent thrombin inhibitor. The disulfide-linked bivalent thrombin inhibitor (corresponding to SEQ. ID. NO. 91) prepared by cross-oxidation of cysteine thiol groups from two peptides Bbs-Arg-(D-Pip)-Gly-Cys (SEQ. ID. NO. 4) and […](SEQ. ID. NO. 114) (preparation described in Example 1) was tested for its ability to bind calcium and inhibit amidolytic reaction in the presence and absence of calcium. […]

Where [5] appears, read: 25° C., S-2238, clotting buffer, read-out: KI, nM (25° C.).

Where two headings read alike, the source gives them in different places.

Turning to `CC[C@H](C)[C@H](NC(=O)[C@H](CC(C)C)NC(=O)[C@H](CCCCN)NC(=O)[C@H](CCC(N)=O)NC(=O)[C@H](CCC(=O)O)NC(=O)CNC(=O)[C@H]1CCCCN1C(=O)[C@H](CCCNC(=N)N)NS(=O)(=O)c1ccc(C(C)(C)C)cc1)C(=O)N[C@@H](CO)C(=O)N[C@@H](CCC(=O)O)C(=O)N[C@@H](CCC(=O)O)C(=O)N[C@@H](CC(=O)O)C(=O)N[C@@H](CC(C)C)C(=O)NCC(=O)N[C@@H](CC(=O)O)C(=O)N[C@@H](Cc1ccccc1)C(=O)N[C@@H](CCC(=O)O)C(=O)N[C@@H](CCC(=O)O)C(=O)N[C@H](C(=O)N1CCC[C@H]1C(=O)N[C@@H](CCC(=O)O)C(=O)N[C@@H](CCC(=O)O)C(=O)N[C@@H](Cc1ccc(O)cc1)C(=O)N[C@@H](CC(C)C)C(=O)N[C@@H](CCC(N)=O)C(=O)O)[C@@H](C)CC` [P3182], affinity in experiment [1] was put at a Ki of 66 ± 13 nM. Also, the “Effect of antibody 9E10 on inhibitory potency” value in experiment [2] (150 nM inhibitor, ~1.2 μM 9E10) was “reversed the inhibitory potency”. For the same compound, the Clotting onset time result in experiment [2] (1.2 μM anti-c-myc antibody 9E10) is given as “approximately 230 s”; in experiment [2] (no antibody), “approximately 530 s”. In addition, the half-inhibitory concentration (IC50) (in general, the point on the concentration scale where inhibition reaches its midpoint) in experiment [2] (IC50, nM (37° C.), 37° C.) is ~25 nM.

With `CC[C@H](C)[C@H](NC(=O)[C@H](CCC(=O)O)NC(=O)[C@H](CCC(=O)O)NC(=O)[C@H](Cc1ccccc1)NC(=O)[C@H](CC(=O)O)NC(=O)CNC(=O)[C@H](CO)NC(=O)CNC(=O)[C@H](CO)NC(=O)CNC(=O)[C@H](CO)NC(=O)CNC(=O)[C@H](CO)NC(=O)CNC(=O)[C@H]1CCCCN1C(=O)[C@H](CCCNC(=N)N)NS(=O)(=O)c1ccc(C(C)(C)C)cc1)C(=O)N1CCC[C@H]1C(=O)N[C@@H](CCC(=O)O)C(=O)N[C@@H](CCC(=O)O)C(=O)N[C@@H](Cc1ccc(O)cc1)C(=O)N[C@@H](CC(C)C)C(=O)N[C@@H](CCC(N)=O)C(=O)O` [P3150], the “Effect of calcium on inhibition potency” value in experiment [3] is reported as “no visible effect”. Moreover, in experiment [1] (setting [5]), the inhibitory constant (Ki) (usually the equilibrium dissociation constant of an inhibitor or competing ligand from its target) turned out to be 0.5 ± 0.2 nM. Also, 0.5 ± 0.1 nM corresponded to half-maximal inhibition in experiment [2] (IC50, nM (37° C.), 37° C.) (IC50).

As to DKNADGWIDNGEFE [P3230], in experiment [4], the “Affinity of calcium binding” value is on record as “mM range”.

Take DKNADGWIDNGDFE [P3231]: the “Affinity of calcium binding” value in experiment [4] is “mM range”.

As to DKNADGWIDNGDFE [SEQ. ID. NO. 17], the “Affinity of calcium binding” value in experiment [4] is on record as “millimolar range”.

For the compound `CC[C@H](C)[C@H](NC(=O)[C@H](CCC(=O)O)NC(=O)[C@H](CCC(=O)O)NC(=O)[C@H](Cc1ccccc1)NC(=O)[C@H](CC(=O)O)NC(=O)CNC(=O)[C@H](CO)NC(=O)CNC(=O)[C@H](CO)NC(=O)CNC(=O)[C@H](CO)NC(=O)CNC(=O)[C@H](CO)NC(=O)CNC(=O)[C@H](CO)NC(=O)CNC(=O)[C@H](CO)NC(=O)CNC(=O)[C@H](CO)NC(=O)CNC(=O)[C@H](CO)NC(=O)CNC(=O)[C@H](CO)NC(=O)CNC(=O)[C@H](CO)NC(=O)CNC(=O)[C@H](CO)NC(=O)CNC(=O)[C@H](CO)NC(=O)CNC(=O)[C@H]1CCCCN1C(=O)[C@H](CCCNC(=N)N)NS(=O)(=O)c1ccc(C(C)(C)C)cc1)C(=O)N1CCC[C@H]1C(=O)N[C@@H](CCC(=O)O)C(=O)N[C@@H](CCC(=O)O)C(=O)N[C@@H](Cc1ccc(O)cc1)C(=O)N[C@@H](CC(C)C)C(=O)N[C@@H](CCC(N)=O)C(=O)O` [P3160], the inhibitory constant (Ki) in experiment [1] (setting [5]) stood at 4.6 ± 0.8 nM. For the same compound, in experiment [2] (IC50, nM (37° C.), 37° C.), the IC50 was 2.8 ± 0.1 nM.

On to `CC[C@H](C)[C@H](NC(=O)[C@H](CCC(=O)O)NC(=O)[C@H](CCC(=O)O)NC(=O)[C@H](Cc1ccccc1)NC(=O)[C@H](CC(=O)O)NC(=O)CNC(=O)[C@H](CO)NC(=O)CNC(=O)[C@H](CO)NC(=O)CNC(=O)[C@H](CO)NC(=O)CNC(=O)[C@H](CO)NC(=O)CNC(=O)[C@H](CO)NC(=O)CNC(=O)[C@H](CO)NC(=O)CNC(=O)[C@H](CO)NC(=O)CNC(=O)[C@H](CO)NC(=O)CNC(=O)[C@H](CO)NC(=O)CNC(=O)[C@H](CO)NC(=O)CNC(=O)[C@H]1CCCCN1C(=O)[C@H](CCCNC(=N)N)NS(=O)(=O)c1ccc(C(C)(C)C)cc1)C(=O)N1CCC[C@H]1C(=O)N[C@@H](CCC(=O)O)C(=O)N[C@@H](CCC(=O)O)C(=O)N[C@@H](Cc1ccc(O)cc1)C(=O)N[C@@H](CC(C)C)C(=O)N[C@@H](CCC(N)=O)C(=O)O` [P3153], for which the Ki in experiment [1] (setting [5]) is 2 ± 0.3 nM. The half-inhibitory concentration (IC50) in experiment [2] (IC50, nM (37° C.), 37° C.) amounted to 1 ± 0.1 nM.

On to `CC[C@H](C)[C@H](NC(=O)[C@H](CCC(=O)O)NC(=O)[C@H](CCC(=O)O)NC(=O)[C@H](Cc1ccccc1)NC(=O)[C@H](CC(=O)O)NC(=O)CNC(=O)[C@H](CO)NC(=O)[C@@H](NC(=O)[C@H](CCCCN)NC(=O)[C@H](CCC(=O)O)NC(=O)[C@H](Cc1ccc(OP(=O)(O)O)cc1)NC(=O)[C@H](Cc1c[nH]cn1)NC(=O)[C@@H]1CCCN1C(=O)[C@H](CO)NC(=O)CNC(=O)[C@H]1CCCCN1C(=O)[C@H](CCCNC(=N)N)NS(=O)(=O)c1ccc(C(C)(C)C)cc1)C(C)C)C(=O)N1CCC[C@H]1C(=O)N[C@@H](CCC(=O)O)C(=O)N[C@@H](CCC(=O)O)C(=O)N[C@@H](Cc1ccc(O)cc1)C(=O)N[C@@H](CC(C)C)C(=O)N[C@@H](CCC(N)=O)C(=O)O` [P3170], for which the Ki in experiment [1] (setting [5]) amounted to 1.5 ± 0.4 nM. Besides, 0.7 nM corresponded to half-maximal inhibition in experiment [2] (IC50, nM (25° C.), 25° C.) (IC50).

In the case of `CC[C@H](C)[C@H](NC(=O)[C@H](CCC(=O)O)NC(=O)[C@H](CCC(=O)O)NC(=O)[C@H](Cc1ccccc1)NC(=O)[C@H](CC(=O)O)NC(=O)CNC(=O)[C@H](CO)NC(=O)CNC(=O)[C@H](CO)NC(=O)CNC(=O)[C@H](CO)NC(=O)CNC(=O)[C@H](CO)NC(=O)CNC(=O)[C@H](CO)NC(=O)CNC(=O)[C@H](CO)NC(=O)CNC(=O)[C@H]1CCCCN1C(=O)[C@H](CCCNC(=N)N)NS(=O)(=O)c1ccc(C(C)(C)C)cc1)C(=O)N1CCC[C@H]1C(=O)N[C@@H](CCC(=O)O)C(=O)N[C@@H](CCC(=O)O)C(=O)N[C@@H](Cc1ccc(O)cc1)C(=O)N[C@@H](CC(C)C)C(=O)N[C@@H](CCC(N)=O)C(=O)O` [P3151], the Ki in experiment [1] (setting [5]) worked out at 0.6 ± 0.1 nM. In experiment [2] (IC50, nM (37° C.), 37° C.), this compound showed a half-maximal inhibitory concentration (IC50) of 0.5 ± 0.1 nM.
